# Laboratory results from patent publication US8063077B2, “Factor Xa inhibitors” (Millennium Pharmaceuticals, Inc., priority 2006, dated 2011).
# pIC50: −log10 of the molar value.
# Biological target: T1, human plasma protein factor Xa (Homo sapiens, UniProt P00742)
# T1 construct: The human plasma protein factor Xa was purchased from Haematologic Technologies; purchased Haematologic Technologies (Essex Junction, Vt.); host or cells: human plasma
# Experiment: Factor Xa IC50 determination, cleavage of paranitroanilide substrate S-2765
# Type: biochemical
# Conditions: factor Xa 1 nM, S2765 100 μM, Tris buffered saline pH 7.4, 5% DMSO
# Source text: This example illustrates methods for evaluating the compounds of the invention, along with results obtained for such assays. The in vitro and in vivo human Factor Xa activities of the inventive compounds can be determined by various procedures known in the art, such as a test for their ability to inhibit the activity of human plasma Factor Xa. […] The IC50 value is the concentration (in nM) of the compound required to provide 50% inhibition of human Factor Xa proteolytic activity.
# An in vitro assay for detecting and measuring inhibition activity against Factor Xa is as follows:
# The substrate S-2765 (Z-D-Arg-Gly-Arg-pNA•HCl) was obtained from Diapharma (West Chester, Ohio).
# The human plasma protein factor Xa was purchased from Haematologic Technologies (Essex Junction, Vt.).
# All assays, which are performed in 96-well microtiter plates, measure proteolytic activity of the enzyme (factor Xa) by following cleavage of a paranitroanilide peptide substrate. The assay buffer used for proteolytic assays was Tris buffered saline (20 mM Tris, 150 mM NaCl, 5 mM CaCl2, 0.1% Bovine serum albumin (BSA), 5% Dimethly Sulfoxide (DMSO) pH 7.4). In a 96-well microtiter plate, inhibitor was serially diluted to give a range of final concentrations from 0.01 nM to 10 μM. Duplicate sets of wells were assayed and control wells without inhibitor were included. Enzyme was added to each well, (factor Xa concentration=1 nM), the plate was shaken for 5 seconds and then incubated for 5 minutes at room temperature. S2765 was added (100 μM final) and the plate was shaken for 5 seconds (final volume in each well was 200 μl). The degree of substrate hydrolysis was measured at 405 nm on a Thermomax plate reader (Molecular Devices, Sunnyvale, Calif.) for 2 minutes. The initial velocities of substrate cleavage (mOD/min), for each range of inhibitor concentrations, were fitted to a four parameter equation using Softmax data analysis software. The parameter C, derived from the resulting curve-fit, corresponded to the concentration for half maximal inhibition (IC50).
# T1 sequence (P00742 235-488 limits assumed): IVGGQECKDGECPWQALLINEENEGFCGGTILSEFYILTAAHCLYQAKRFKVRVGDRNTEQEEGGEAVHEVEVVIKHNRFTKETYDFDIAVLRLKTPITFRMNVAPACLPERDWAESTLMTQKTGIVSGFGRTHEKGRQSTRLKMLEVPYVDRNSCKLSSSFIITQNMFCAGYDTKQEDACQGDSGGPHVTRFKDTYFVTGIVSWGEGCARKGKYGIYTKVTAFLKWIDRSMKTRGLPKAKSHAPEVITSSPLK
# T1 sequence (P00742 41-179 partner limits assumed): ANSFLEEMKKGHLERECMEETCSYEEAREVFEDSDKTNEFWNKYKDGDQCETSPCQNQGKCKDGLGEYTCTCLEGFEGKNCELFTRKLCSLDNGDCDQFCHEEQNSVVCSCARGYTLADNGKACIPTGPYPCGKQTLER
row,SMILES,pIC50
1,"O=C(NCc1cn(-c2ccc(N3CCSCC3=O)cc2)cn1)c1ccc(Cl)s1 [Compound 15, 5-Chloro-N-((1-(4-(3-oxothiomorpholino)phenyl)-1H-imidazol-4-yl)methyl)thiophene-2-carboxamide]",≥ 7.00
2,"O=C(NCc1cn(-c2ccc(-n3ccccc3=O)cc2N2CCS(=O)(=O)CC2)cn1)c1ccc(Cl)s1 [Compound 25, 5-Chloro-N-((1-(4-(2-oxopyridin-1(2H)-yl)-2-(1,1-dioxo-thiomorpholin-4-yl)phenyl)-1H-imidazol-4-yl)methyl)thiophene-2-carboxamide]",≥ 7.00
3,"O=C1CN(c2ccc(-n3cnc(CNC(=O)c4ccc(Cl)s4)c3)cc2)C(=O)CN1 [Compound 20, 5-Chloro-N-((1-(4-(2,5-dioxopiperazin-1-yl)phenyl)-1H-imidazol-4-yl)methyl)thiophene-2-carboxamide]",≤ 6.30
4,"O=C(NCc1cn(-c2ccc(N3CCS(=O)(=O)CC3=O)cc2)cn1)c1ccc(Cl)s1 [Compound 16, 5-Chloro-N-((1-(4-(1,1-dioxo-3-oxothiomorpholino)phenyl)-1H-imidazol-4-yl)methyl)thiophene-2-carboxamide]",≤ 6.30
5,"CS(=O)(=O)c1cc(-n2ccccc2=O)ccc1-n1cnc(CNC(=O)c2ccc(Cl)s2)c1 [Compound 22, 5-Chloro-N-((1-(2-(methylsulfonyl)-4-(2-oxopyridin-1(2H)-yl)phenyl)-1H-imidazol-4-yl)methyl)thiophene-2-carboxamide]",≥ 7.00
6,"O=C(NCc1cn(-c2ccc(-n3ccccc3=O)cc2F)cn1)c1ccc(Cl)s1 [Compound 21, 5-Chloro-N-((1-(2-fluoro-4-(2-oxopyridin-1(2H)-yl)phenyl)-1H-imidazol-4-yl)methyl)thiophene-2-carboxamide]",≥ 7.00
7,"O=C(NCc1cn(-c2ccc(-n3ncccc3=O)cc2)cn1)c1ccc(Cl)s1 [Compound 13, 5-Chloro-N-((1-(4-(6-oxopyridazin-1(6H)-yl)phenyl)-1H-imidazol-4-yl)methyl)thiophene-2-carboxamide]",≤ 6.30
8,"O=C(NCc1cn(-c2ccc(-n3ccccc3=O)cc2NCCO)cn1)c1ccc(Cl)s1 [Compound 27, 5-Chloro-N-((1-(2-(2-hydroxyethylamino)-4-(2-oxopyridin-1(2H)-yl)phenyl)-1H-imidazol-4-yl)methyl)thiophene-2-carboxamide]",≥ 7.00
9,"O=C(NCc1cn(-c2ccc(-n3ccccc3=O)cc2N2CCSCC2)cn1)c1ccc(Cl)s1 [Compound 24, 5-Chloro-N-((1-(4-(2-oxopyridin-1(2H)-yl)-2-thiomorpholinophenyl)-1H-imidazol-4-yl)methyl)thiophene-2-carboxamide]",≥ 7.00
10,"O=C1CN(c2cc(-n3ccccc3=O)ccc2-n2cnc(CNC(=O)c3ccc(Cl)s3)c2)CCN1 [Compound 26, 5-Chloro-N-((1-(2-(3-oxopiperazin-1-yl)-4-(2-oxopyridin-1(2H)-yl)phenyl)-1H-imidazol-4-yl)methyl)thiophene-2-carboxamide]",≥ 7.00
11,"O=C(NCc1cn(-c2ccc(N3CCNC3=O)cc2)cn1)c1ccc(Cl)s1 [Compound 19, 5-Chloro-N-((1-(4-(2-oxoimidazolidin-1-yl)phenyl)-1H-imidazol-4-yl)methyl)thiophene-2-carboxamide]",6.30 to 7.00
12,"O=C(NCc1cn(-c2ccc(N3CCOCC3=O)cc2)cn1)c1ccc(Cl)s1 [Compound 11, 5-Chloro-N-((1-(4-(3-oxomorpholino)phenyl)-1H-imidazol-4-yl)methyl)thiophene-2-carboxamide]",≥ 7.00

# The remaining lines, values ahead:
row,pIC50,SMILES
1,≥ 7.00,"O=C(NCc1cn(-c2ccc(-n3cccc(F)c3=O)cc2)cn1)c1ccc(Cl)s1 [Compound 43, 5-chloro-N-((1-(4-(3-fluoro-2-oxopyridin-1(2H)-yl)phenyl)-1H-imidazol-4-yl)methyl)thiophene-2-carboxamide]"
2,≥ 7.00,"C[S+]([O-])c1nc(CNC(=O)c2ccc(Cl)s2)cn1-c1ccc(-n2ccccc2=O)cc1 (stereo not drawn) [Compound 57, 5-chloro-N-((2-(methylsulfinyl)-1-(4-(2-oxopyridin-1(2H)-yl)phenyl)-1H-imidazol-4-yl)methyl)thiophene-2-carboxamide]"
3,≥ 7.00,"N#C/N=c1\ccccn1-c1ccc(-n2cnc(CNC(=O)c3ccc(Cl)s3)c2)cc1 [Compound 33, (E)-5-chloro-N-((1-(4-(2-(cyanoimino)pyridin-1(2H)-yl)phenyl)-1H-imidazol-4-yl)methyl)thiophene-2-carboxamide]"
4,≥ 7.00,"O=C(NCc1cn(-c2ccc(-n3cccc(OCCO)c3=O)cc2)cn1)c1ccc(Cl)s1 [Compound 59, 5-chloro-N-((1-(4-(3-(2-hydroxyethoxy)-2-oxopyridin-1(2H)-yl)phenyl)-1H-imidazol-4-yl)methyl)thiophene-2-carboxamide]"
5,≥ 7.00,"O=C(NCc1cn(-c2ccc(-n3ccccc3=S)cc2)cn1)c1ccc(Cl)s1 [Compound 30, 5-Chloro-N-((1-(4-(2-thioxopyridin-1(2H)-yl)phenyl)-1H-imidazol-4-yl)methyl)thiophene-2-carboxamide]"
6,≥ 7.00,"Nc1ccn(-c2ccc(-n3cnc(CNC(=O)c4ccc(Cl)s4)c3)cc2)c(=O)n1 [Compound 48, N-((1-(4-(4-amino-2-oxopyrimidin-1(2H)-yl)phenyl)-1H-imidazol-4-yl)methyl)-5-chlorothiophene-2-carboxamide]"
7,≥ 7.00,"Nc1nc(=O)n(-c2ccc(-n3cnc(CNC(=O)c4ccc(Cl)s4)c3)cc2)cc1F [Compound 50, N-((1-(4-(4-amino-5-fluoro-2-oxopyrimidin-1(2H)-yl)phenyl)-1H-imidazol-4-yl)methyl)-5-chlorothiophene-2-carboxamide]"
8,≤ 6.30,"O=C(NCc1cn(-c2ccc(-n3ccccc3=O)cc2)cn1)c1ccc2[nH]ccc2c1 [Compound 54, N-((1-(4-(2-oxopyridin-1(2H)-yl)phenyl)-1H-imidazol-4-yl)methyl)-1H-indole-5-carboxamide]"
9,≤ 6.30,"Cc1c(CNC(=O)c2ccc(Cl)s2)ncn1-c1ccc(-n2ccccc2=O)cc1 [Compound 63, 5-Chloro-N-((5-methyl-1-(4-(2-oxopyridin-1(2H)-yl)phenyl)-1H-imidazol-4-yl)methyl)thiophene-2-carboxamide]"
10,≥ 7.00,"O=C(NCc1cn(-c2ccc(-n3ccccc3=O)cc2OCCN2CCCCC2)cn1)c1ccc(Cl)s1 [Compound 53, 5-chloro-N-((1-(4-(2-oxopyridin-1(2H)-yl)-2-(2-(piperidin-1-yl)ethoxy)phenyl)-1H-imidazol-4-yl)methyl)thiophene-2-carboxamide]"
11,≥ 7.00,"CSc1nc(CNC(=O)c2ccc(Cl)s2)cn1-c1ccc(-n2ccccc2=O)cc1 [Compound 55, 5-chloro-N-((2-(methylthio)-1-(4-(2-oxopyridin-1(2H)-yl)phenyl)-1H-imidazol-4-yl)methyl)thiophene-2-carboxamide]"
12,≥ 7.00,"CC(=O)Nc1ccn(-c2ccc(-n3cnc(CNC(=O)c4ccc(Cl)s4)c3)cc2)c(=O)n1 [Compound 51, N-((1-(4-(4-acetamido-2-oxopyrimidin-1(2H)-yl)phenyl)-1H-imidazol-4-yl)methyl)-5-chlorothiophene-2-carboxamide]"
13,≥ 7.00,"O=C(NCc1cn(-c2ccc(-n3cccc(O)c3=O)cc2)cn1)c1ccc(Cl)s1 [Compound 42, 5-chloro-N-((1-(4-(3-hydroxy-2-oxopyridin-1(2H)-yl)phenyl)-1H-imidazol-4-yl)methyl)thiophene-2-carboxamide]"
14,≥ 7.00,"Cc1cccn(-c2ccc(-n3cnc(CNC(=O)c4ccc(Cl)s4)c3)cc2)c1=O [Compound 44, 5-chloro-N-((1-(4-(3-methyl-2-oxopyridin-1(2H)-yl)phenyl)-1H-imidazol-4-yl)methyl)thiophene-2-carboxamide]"
15,≤ 6.30,"COC(=O)c1cc(-n2ccccc2=O)ccc1-n1cnc(CNC(=O)c2ccc(Cl)s2)c1 [Compound 29, 5-Chloro-N-((1-(2-methoxycarbonyl-4-(2-oxopyridin-1(2H)-yl)phenyl)-1H-imidazol-4-yl)methyl)thiophene-2-carboxamide]"
16,≥ 7.00,"Cc1nc(CNC(=O)c2ccc(Cl)s2)cn1-c1ccc(-n2ccccc2=O)cc1 [Compound 62, 5-Chloro-N-((2-methyl-1-(4-(2-oxopyridin-1(2H)-yl)phenyl)-1H-imidazol-4-yl)methyl)thiophene-2-carboxamide]"
17,≤ 6.30,"Cn1c(Cl)ccc1C(=O)NCc1cn(-c2ccc(-n3ccccc3=O)cc2)cn1 [Compound 38, 5-chloro-1-methyl-N-((1-(4-(2-oxopyridin-1(2H)-yl)phenyl)-1H-imidazol-4-yl)methyl)-1H-pyrrole-2-carboxamide]"
18,≥ 7.00,"CS(=O)(=O)c1nc(CNC(=O)c2ccc(Cl)s2)cn1-c1ccc(-n2ccccc2=O)cc1 [Compound 56, 5-chloro-N-((2-(methylsulfonyl)-1-(4-(2-oxopyridin-1(2H)-yl)phenyl)-1H-imidazol-4-yl)methyl)thiophene-2-carboxamide]"
